Values quoted from earlier work in patent US8247391B2, “Gel compositions” (De Montfort University, priority 2001, dated 2012).
Converted amounts (≈) assume the structure as drawn.

Settings: room temperature, pH 7.3 buffer (with antioxidants)

Structure (SMILES)	water solubility
CC1=C(/C=C/C(C)=C/C=C/C(C)=C/C=O)C(C)(C)CCC1 [retinal, retinaldehyde]	0.11 µM (≈ 0.0313 µg/mL)
CC1=C(/C=C/C(C)=C/C=C/C(C)=C/C(=O)O)C(C)(C)CCC1 [retinoic acid]	0.21 µM (≈ 0.0631 µg/mL)
CC1=C(/C=C/C(C)=C/C=C/C(C)=C/CO)C(C)(C)CCC1 [retinol, Retinol]	0.06 µM (≈ 0.0172 µg/mL)
